Tests used:
[1] = target: T1, IRAK1 (Homo sapiens, UniProt P51617); test: RBC HotSpot Kinase Assay, IRAK1; assay type: biochemical; conditions: isolated kinase enzyme, 33P-ATP, P81 filter-binding
T1 construct: purchased Reaction Biology (RBC HotSpot)
Procedure, shortened: (§1)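 Radiometric HotSpot assay of catalytic activity with isolated recombinant kinase, possibly truncated or kinase domain only. Buffer: 20 mM Hepes pH 7.5, 10 mM MgCl2, 1 mM EGTA, 0.01% Brij35, 0.02 mg/ml BSA, 0.1 mM Na3VO4, 2 mM DTT, 1% DMSO, with cofactors specific to each kinase.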

[2] = test system: MOLM14 D835Y cells; test: MOLM14 D835Y cell viability assay (Cell Titer Glo); assay type: cell-based; conditions: Homo sapiens, MOLM-14, 48 h, cell viability, Cell Titer Glo, 48 hours; read-out: MOLM14 D835Y IC50
Procedure, shortened: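 MOLM14 cells with FLT3 D835Y or F691L kinase-domain resistance mutations seeded at 1000 cells/well and exposed to compound for 48 h under standard incubator conditions. Viability read by CellTiter-Glo luminescence after 15 min at room temperature.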

[3] = test system: MOLM14 F691L cells; test: MOLM14 F691L cell viability assay (Cell Titer Glo); assay type: cell-based; conditions: Homo sapiens, MOLM-14; cell viability, Cell Titer Glo, 48 hours; read-out: MOLM14 F691L IC50
Experimental: Both cell lines have activated FLT3 receptors, each of which carry additional resistance mutations in the kinase domain (D835Y and F691L, respectively).
For viability/cytotoxicity assessments, cells were seeded into 1536-well white polystyrene tissue culture-treated Greiner plates using a Multidrop Combi dispenser (ThermoFisher), in final volume 5 μL of growth media per well, at a density of 1000 cells per well. […] Plates were incubated for 48 hours at standard incubator conditions covered by a stainless steel gasketed lid to prevent evaporation. 48 hours post compound addition, 3 μL of Cell Titer Glo (Promega) were added to each well and plates were incubated at room temperature for 15 minutes with the stainless-steel lid in place. Luminescence readings were taken using a Viewlux imager (PerkinElmer) with a 2 second exposure time per plate.

[4] = target: T2, IRAK4 (Homo sapiens, UniProt Q9NWZ3); test: RBC HotSpot Kinase Assay, IRAK4; assay type: biochemical; set-up: purchased Reaction Biology (RBC HotSpot); conditions: isolated kinase enzyme, 33P-ATP, P81 filter-binding
T2 sequence (Q9NWZ3 1-460): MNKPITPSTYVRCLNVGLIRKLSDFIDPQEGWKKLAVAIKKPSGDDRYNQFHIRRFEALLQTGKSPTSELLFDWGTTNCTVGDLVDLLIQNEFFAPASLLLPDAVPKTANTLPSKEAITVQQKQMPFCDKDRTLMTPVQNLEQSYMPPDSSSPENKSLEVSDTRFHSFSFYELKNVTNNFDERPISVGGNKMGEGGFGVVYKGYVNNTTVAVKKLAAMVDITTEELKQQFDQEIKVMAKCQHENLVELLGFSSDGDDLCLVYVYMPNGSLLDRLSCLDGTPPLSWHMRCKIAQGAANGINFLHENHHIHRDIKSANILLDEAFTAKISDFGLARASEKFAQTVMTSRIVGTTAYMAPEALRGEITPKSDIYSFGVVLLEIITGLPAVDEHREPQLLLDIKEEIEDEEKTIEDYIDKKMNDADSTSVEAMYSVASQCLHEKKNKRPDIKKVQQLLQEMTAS
Procedure, shortened: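 Radiometric filter-binding activity assay with isolated recombinant kinase (construct may be truncated or catalytic domain only) in 20 mM Hepes pH 7.5, 10 mM MgCl2, 1 mM EGTA, 2 mM DTT, 1% DMSO. Compound preincubated 20 min with kinase/substrate; reaction started with 33P-ATP, run 2 h at room temperature.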

[5] = target: T3, FLT3 (Homo sapiens, UniProt P36888); test: RBC HotSpot Kinase Assay, FLT3; assay type: biochemical; set-up: purchased Reaction Biology (RBC HotSpot); conditions: isolated kinase enzyme, 33P-ATP, P81 filter-binding
T3 sequence (P36888 27-993): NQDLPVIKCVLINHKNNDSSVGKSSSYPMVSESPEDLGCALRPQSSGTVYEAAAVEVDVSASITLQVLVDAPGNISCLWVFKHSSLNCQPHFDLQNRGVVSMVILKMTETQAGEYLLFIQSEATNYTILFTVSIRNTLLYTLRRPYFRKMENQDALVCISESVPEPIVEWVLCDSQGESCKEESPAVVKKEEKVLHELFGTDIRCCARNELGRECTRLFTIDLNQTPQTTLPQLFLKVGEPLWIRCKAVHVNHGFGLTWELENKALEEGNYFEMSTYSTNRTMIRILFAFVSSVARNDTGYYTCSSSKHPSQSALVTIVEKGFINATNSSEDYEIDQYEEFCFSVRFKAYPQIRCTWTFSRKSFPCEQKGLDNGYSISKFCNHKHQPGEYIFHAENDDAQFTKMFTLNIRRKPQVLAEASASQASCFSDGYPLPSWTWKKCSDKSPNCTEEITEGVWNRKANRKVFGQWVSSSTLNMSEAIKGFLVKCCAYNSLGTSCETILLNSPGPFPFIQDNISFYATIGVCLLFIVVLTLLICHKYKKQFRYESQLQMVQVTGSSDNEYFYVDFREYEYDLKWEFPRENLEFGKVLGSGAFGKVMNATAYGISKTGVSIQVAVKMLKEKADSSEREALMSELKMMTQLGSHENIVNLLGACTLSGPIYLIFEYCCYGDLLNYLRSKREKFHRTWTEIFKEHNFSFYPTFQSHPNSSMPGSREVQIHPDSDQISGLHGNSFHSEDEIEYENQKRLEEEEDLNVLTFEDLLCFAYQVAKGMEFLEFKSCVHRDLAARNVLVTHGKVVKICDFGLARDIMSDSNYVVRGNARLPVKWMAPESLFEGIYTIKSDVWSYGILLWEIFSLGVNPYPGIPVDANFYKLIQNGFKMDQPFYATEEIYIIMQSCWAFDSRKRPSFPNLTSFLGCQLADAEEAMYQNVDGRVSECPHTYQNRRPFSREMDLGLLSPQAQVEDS
Procedure, shortened: as §1

T1 sequence (P51617 whole entry): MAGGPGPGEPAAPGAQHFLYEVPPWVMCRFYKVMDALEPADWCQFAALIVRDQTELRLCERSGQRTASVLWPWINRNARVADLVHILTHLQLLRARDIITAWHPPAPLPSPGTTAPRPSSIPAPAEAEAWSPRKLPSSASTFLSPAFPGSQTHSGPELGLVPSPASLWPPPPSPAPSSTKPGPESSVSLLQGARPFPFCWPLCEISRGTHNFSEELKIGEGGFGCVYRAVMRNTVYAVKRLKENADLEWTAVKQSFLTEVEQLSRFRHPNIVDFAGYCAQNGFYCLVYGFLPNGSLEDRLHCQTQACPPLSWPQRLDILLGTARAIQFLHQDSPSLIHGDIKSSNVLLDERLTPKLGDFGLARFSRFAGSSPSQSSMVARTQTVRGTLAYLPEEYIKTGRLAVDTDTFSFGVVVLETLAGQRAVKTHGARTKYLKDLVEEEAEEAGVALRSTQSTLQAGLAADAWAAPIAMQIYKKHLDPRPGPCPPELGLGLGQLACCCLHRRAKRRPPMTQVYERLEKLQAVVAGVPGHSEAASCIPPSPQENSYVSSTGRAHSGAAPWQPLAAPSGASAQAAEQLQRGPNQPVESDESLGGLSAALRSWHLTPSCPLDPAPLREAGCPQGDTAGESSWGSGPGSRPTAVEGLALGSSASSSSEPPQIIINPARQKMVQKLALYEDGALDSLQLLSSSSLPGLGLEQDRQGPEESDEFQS

SMILES: COc1cc2ncc(-c3ccnc(N[C@H]4CNC[C@@H]4F)n3)n2nc1C1CCCCC1 [Compound 86a, 4-(6-cyclohexyl-7-methoxyimidazo[1,2-b]pyridazin-3-yl)-N-((3S,4S)-4-fluoropyrrolidin-3-yl)pyrimidin-2-amine]
- IC50 [1]: 0.016 µM
- IC50 [2]: 0.018 µM
- IC50 [3]: 0.142 µM
- IC50 [4]: 0.001 µM
- IC50 [5]: < 0.0005 µM

SMILES: COc1cc2ncc(-c3ccnc(N[C@H]4CNCC[C@@H]4F)n3)n2nc1[C@H]1C[C@@H](O)C1 [Compound 127a, (Cis)-3-(3-(2-(((3S,4S)-4-fluoropiperidin-3-yl)amino)pyrimidin-4-yl)-7-methoxyimidazo[1,2-b]pyridazin-6-yl)cyclobutan-1-ol]
- IC50 [1]: 0.02 µM
- IC50 [2]: 0.008 µM
- IC50 [3]: 0.113 µM
- IC50 [4]: < 0.0005 µM
- IC50 [5]: < 0.0005 µM

SMILES: COc1cc2ncc(-c3nc(N[C@H]4CNCC[C@@H]4F)ncc3F)n2nc1C12CC(C1)C2 [Compound 69a, 4-(6-(bicyclo[1.1.1]pentan-1-yl)-7-methoxyimidazo[1,2-b]pyridazin-3-yl)-5-fluoro-N-((3S,4S)-4-fluoropiperidin-3-yl)pyrimidin-2-amine]
- IC50 [1]: 0.0009 µM
- IC50 [2]: 0.003 µM
- IC50 [3]: 0.025 µM
- IC50 [4]: 0.0007 µM
- IC50 [5]: < 0.0005 µM

SMILES: COc1cc2ncc(-c3ccnc(N[C@@H]4CCCNC4)n3)n2nc1C1CC2(CCC2)C1 [Compound 76a, (R)-4-(7-methoxy-6-(spiro[3.3]heptan-2-yl)imidazo[1,2-b]pyridazin-3-yl)-N-(piperidin-3-yl)pyrimidin-2-amine]
- IC50 [1]: 0.037 µM
- IC50 [2]: 0.101 µM
- IC50 [3]: 1.13 µM
- IC50 [4]: 0.021 µM
- IC50 [5]: < 0.0005 µM

SMILES: COc1cc2ncc(-c3nc(N[C@H]4CNC[C@@H]4F)ncc3F)n2nc1C1COC1 [Compound 93a, 5-fluoro-N-((3S,4S)-4-fluoropyrrolidin-3-yl)-4-(7-methoxy-6-(oxetan-3-yl)imidazo[1,2-b]pyridazin-3-yl)pyrimidin-2-amine]
- IC50 [1]: 0.005 µM
- IC50 [2]: 0.013 µM
- IC50 [3]: 0.142 µM
- IC50 [4]: < 0.0005 µM
- IC50 [5]: < 0.0005 µM

SMILES: COc1cc2ncc(-c3ccnc(N[C@@H]4CCCNC4)n3)n2nc1C1CCCC1 [Compound 84a, (R)-4-(6-cyclopentyl-7-methoxyimidazo[1,2-b]pyridazin-3-yl)-N-(piperidin-3-yl)pyrimidin-2-amine]
- IC50 [1]: 0.018 µM
- IC50 [2]: 0.014 µM
- IC50 [3]: 0.113 µM
- IC50 [4]: 0.002 µM
- IC50 [5]: < 0.0005 µM

SMILES: COc1cc2ncc(-c3nc(N[C@H]4CNC[C@@H]4F)ncc3F)n2nc1N1CCS(=O)(=O)CC1 [Compound 123a, 4-(3-(5-fluoro-2-(((3S,4S)-4-fluoropyrrolidin-3-yl)amino)pyrimidin-4-yl)-7-methoxyimidazo[1,2-b]pyridazin-6-yl)thiomorpholine 1,1-dioxide]
- IC50 [1]: 0.043 µM
- IC50 [2]: 0.063 µM
- IC50 [3]: 1.01 µM
- IC50 [4]: 0.005 µM
- IC50 [5]: < 0.0005 µM

SMILES: COc1cc2ncc(-c3nc(N[C@H]4CNC[C@@H]4F)ncc3F)n2nc1C1CC2(CCC2)C1 [Compound 58a, 5-fluoro-N-((3S,4S)-4-fluoropyrrolidin-3-yl)-4-(7-methoxy-6-(spiro[3.3]heptan-2-yl)imidazo[1,2-b]pyridazin-3-yl)pyrimidin-2-amine]
- IC50 [1]: 0.007 µM
- IC50 [2]: 0.014 µM
- IC50 [3]: 0.127 µM
- IC50 [4]: 0.005 µM
- IC50 [5]: < 0.0005 µM

SMILES: CC(C)(O)c1cn2c(-c3nc(N[C@H]4CNC[C@@H]4F)ncc3F)cnc2cn1 [Compound 98a, 2-(3-(5-fluoro-2-(((3S,4S)-4-fluoropyrrolidin-3-yl)amino)pyrimidin-4-yl)imidazo[1,2-a]pyrazin-6-yl)propan-2-ol]
- IC50 [1]: 0.046 µM
- IC50 [2]: 0.113 µM
- IC50 [3]: 2.52 µM
- IC50 [4]: 0.002 µM
- IC50 [5]: 0.001 µM

SMILES: COc1cc2ncc(-c3ccnc(N[C@@H]4CCCNC4)n3)n2nc1C1CC(C)(C)C1 [Compound 81a]
- IC50 [1]: 0.049 µM
- IC50 [2]: 0.09 µM
- IC50 [3]: 1.27 µM
- IC50 [4]: 0.055 µM
- IC50 [5]: < 0.0005 µM

SMILES: Fc1cnc(N[C@@H]2CCCNC2)nc1-c1cnc2cnc(C3COC3)cn12 [Compound 118a, (R)-5-fluoro-4-(6-(oxetan-3-yl)imidazo[1,2-a]pyrazin-3-yl)-N-(piperidin-3-yl)pyrimidin-2-amine]
- IC50 [1]: 0.732 µM
- IC50 [2]: 0.179 µM
- IC50 [3]: 3.18 µM
- IC50 [4]: 0.155 µM
- IC50 [5]: 0.007 µM

SMILES: COc1cc2ncc(-c3nc(N[C@H]4CNC[C@@H]4F)ncc3F)n2nc1C12CC(C1)C2 [Compound 67a, 4-(6-(bicyclo[1.1.1]pentan-1-yl)-7-methoxyimidazo[1,2-b]pyridazin-3-yl)-5-fluoro-N-((3S,4S)-4-fluoropyrrolidin-3-yl)pyrimidin-2-amine]
- IC50 [1]: 0.001 µM
- IC50 [2]: 0.009 µM
- IC50 [3]: 0.057 µM
- IC50 [4]: 0.0009 µM
- IC50 [5]: < 0.0005 µM

SMILES: COc1cc2ncc(-c3nc(N[C@@H]4CCCNC4)ncc3F)n2nc1C1CCCCC1 [Compound 65a, (R)-4-(6-cyclohexyl-7-methoxyimidazo[1,2-b]pyridazin-3-yl)-5-fluoro-N-(piperidin-3-yl)pyrimidin-2-amine]
- IC50 [1]: < 0.0005 µM
- IC50 [2]: 0.003 µM
- IC50 [3]: 0.018 µM
- IC50 [4]: < 0.0005 µM
- IC50 [5]: < 0.0005 µM

SMILES: COc1cc2ncc(-c3ccnc(N[C@H]4CNC[C@@H]4F)n3)n2nc1C12CC(C1)C2 [Compound 89a, 4-(6-(bicyclo[1.1.1]pentan-1-yl)-7-methoxyimidazo[1,2-b]pyridazin-3-yl)-N-((3S,4S)-4-fluoropyrrolidin-3-yl)pyrimidin-2-amine]
- IC50 [1]: 0.044 µM
- IC50 [2]: 0.018 µM
- IC50 [3]: 0.16 µM
- IC50 [4]: 0.004 µM
- IC50 [5]: < 0.0005 µM

SMILES: COc1cc2ncc(-c3nc(N[C@@H]4CCCNC4)ncc3F)n2nc1N1CCCS1(=O)=O [Compound 110a, (R)-2-(3-(5-fluoro-2-(piperidin-3-ylamino)pyrimidin-4-yl)-7-methoxyimidazo[1,2-b]pyridazin-6-yl)isothiazolidine 1,1-dioxide]
- IC50 [1]: 0.023 µM
- IC50 [2]: 0.018 µM
- IC50 [3]: 0.113 µM
- IC50 [4]: 0.02 µM
- IC50 [5]: < 0.0005 µM

SMILES: COc1cc2ncc(-c3nc(N[C@H]4CNCC[C@@H]4F)ncc3Cl)n2nc1C1CC1 [Compound 103a, 5-chloro-4-(6-cyclopropyl-7-methoxyimidazo[1,2-b]pyridazin-3-yl)-N-((3S,4S)-4-fluoropiperidin-3-yl)pyrimidin-2-amine]
- IC50 [1]: 0.179 µM
- IC50 [2]: 0.071 µM
- IC50 [3]: 0.201 µM
- IC50 [4]: 0.003 µM
- IC50 [5]: 0.0007 µM
